Earlier results in patent US20140093563A1, “FEBUXOSTAT COMPOSITIONS” (RANBAXY LABORATORIES LIMITED, priority 2011, published 2014).

Solubility (BCS): low solubility
Compound: Cc1nc(-c2ccc(OCC(C)C)c(C#N)c2)sc1C(=O)O [febuxostat, 2-(3-cyano-4-isobutyloxyphenyl)-4-methyl-5-thiazolecarboxylic acid]
